Results published in PubChem BioAssay (NCI).
Values joined by “and” are separate entries in the source; they are usually repeats but may differ in a detail not shown here. Equal values may be shown once.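 How tested: cells in 96-well plates exposed to compound for 48 hours at five concentrations. GI50 marks 50% less growth. The concentration for full growth arrest is given as TGI.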 Numbered stars: 1 amine (or outer) side, 2 acyl side, 3 side chain; on linkers, the order of the positions; unused ones are H or OH. Bridge positions count the residues as written; N and C are the ends. Square brackets hold non-standard residues; d marks the D form. Peptide text beside a SMILES is read from it. I, II: the chains in the order shown. Actinocin(1to9) = Cc1c2oc3c(C)ccc(C(=O)[*:2])c3nc-2c(C(=O)[*:1])c(N)c1=O; NMeY = CN[CH](Cc1ccc(O)cc1)C(=O)O; Sar = CNCC(=O)O

Columns and labels:
Test in all cases: NCI-60 cell line screen, 48 h
A498 renal = tested on: A498 renal
786-0 renal = tested on: 786-0 renal
CAKI-1 renal = tested on: CAKI-1 renal
SN12C renal = tested on: SN12C renal
HOP-62 NSCLC = tested on: HOP-62 NSCLC
OVCAR-8 ovarian = tested on: OVCAR-8 ovarian
HS 578T breast = tested on: HS 578T breast

| SMILES | GI50 (A498 renal) | TGI (A498 renal) | GI50 (786-0 renal) | TGI (786-0 renal) | GI50 (CAKI-1 renal) | TGI (CAKI-1 renal) | GI50 (SN12C renal) | TGI (SN12C renal) | GI50 (HOP-62 NSCLC) | TGI (HOP-62 NSCLC) | GI50 (OVCAR-8 ovarian) | TGI (OVCAR-8 ovarian) | GI50 (HS 578T breast) | TGI (HS 578T breast) |
| --- | --- | --- | --- | --- | --- | --- | --- | --- | --- | --- | --- | --- | --- | --- |
| COc1cc(CNc2oc(-c3ccccc3)c(-c3ccccc3)c2C#N)cc(CN2CCN(C)CC2)c1O | 1.55 µM | 3.48 µM | 1.68 µM | 3.21 µM | 1.68 µM | 3.17 µM | 3.95 µM | 15.3 µM | 1.92 µM | 4.21 µM | 2.56 µM | 10.1 µM | 2.26 µM | 6.61 µM |
| COc1ccc(-c2cc(=O)c3c(O)c(OC)c(OC)c(OC)c3o2)cc1 |  | > 27.6 µM |  | > 100 µM |  | > 100 µM |  | > 100 µM |  | > 100 µM |  | > 100 µM |  | > 93.7 µM |
| CC[C@H](C)[C@H](NC(=O)c1cccn1C)C(=O)N(C)[C@H](C[C@@H](OC(C)=O)c1nc(C(=O)N[C@@H](Cc2ccccc2)C[C@H](C)C(=O)OC)cs1)C(C)C | 0.0722 µM | 7.06 µM | 0.172 µM | > 15.8 µM |  |  | 0.351 µM | > 33.3 µM | 0.32 µM | > 33.3 µM | 0.354 µM | > 33.3 µM | 0.226 µM | > 31.2 µM |
| Cc1cc(O)c(-c2ccc([C@@H](C)CN(C)C)cc2)c2c1[nH]c(=O)c1sccc12 | 0.265 µM | 0.929 µM | 0.248 µM | 5.43 µM | 1.82 µM | 33.4 µM | 0.627 µM | 20.7 µM | 0.886 µM | 5.57 µM | 0.983 µM | 34.9 µM | 0.207 µM | 20.8 µM |
| N#Cc1cccc(C2C3=C(COC3=O)N(CCO)c3cc4c(cc32)OCO4)c1 (configuration not stated) | 1.2 µM | 4.14 µM | 2.04 µM | > 50 µM | 1.32 µM | > 50 µM | 3.81 µM | > 50 µM | 2.1 µM | > 50 µM | 2.88 µM | > 50 µM | 1.3 µM | 11.1 µM |
| CC(C)(C)OC(=O)Nc1ccc2c(c1)C(NC(=O)Nc1cccc(C#N)c1)CC(C)(C)O2 (configuration not stated) | 7.14 µM | > 100 µM | 5.05 µM | > 100 µM | 2.49 µM | > 42.6 µM | 4.57 µM | > 100 µM | 5 µM | > 100 µM | 3.13 µM | 55.7 µM | 8.79 µM | > 100 µM |
| Nc1cccc2c1C(=O)c1cccc(NC(=O)c3ccccc3)c1C2=O | 0.306 µM | 6.56 µM | 0.646 µM | 15.7 µM | 0.229 µM | 3.01 µM | 0.723 µM | > 80.6 µM | 0.535 µM | 21.5 µM | 0.784 µM | > 38.8 µM | 0.412 µM | > 53.1 µM |
| COc1ccc(CC2C(=O)OC(C)C(NC(=O)c3c4nc5c(C(=O)NC6C(=O)NC(C(C)C)C(=O)N7CCCC7C(=O)N(C)CC(=O)N(C)C(Cc7ccc(OC)cc7)C(=O)OC6C)ccc(C)c5oc-4c(C)c(=O)c3N)C(=O)NC(C(C)C)C(=O)N3CCCC3C(=O)N(C)CC(=O)N2C)cc1 (configuration not stated) (I: TVP[Sar][NMeY](Me) / II: TVP[Sar][NMeY](Me); ester I:1-I:C, II:1-II:C; linker I:N-II:N via Actinocin(1to9); configuration not given here) |  |  | < 0.0333 µM and 0.00694 µM | > 1 µM | < 0.01 µM and 0.0363 µM | 0.734 µM |  | > 1 µM |  |  |  |  | < 0.01 µM and 0.00387 µM | < 0.01 µM and 0.0411 µM |
| CS(=O)(=O)N(c1cc(-c2ccc3ncnc(Nc4ccc(F)c(Cl)c4)c3c2)cnc1Cl)S(C)(=O)=O | 0.342 µM | 1.56 µM | 1.58 µM | > 26.4 µM | 0.553 µM | 3.98 µM | 0.964 µM | > 32.6 µM | 0.957 µM | 14.7 µM | 2.17 µM | 15.5 µM | 0.218 µM | 2.61 µM |
| N#CC1=C(N)NC(=O)NC12Nc1ccccc1N2 | > 100 µM | > 100 µM | > 100 µM | > 100 µM | > 100 µM | > 100 µM | > 100 µM | > 100 µM | > 100 µM | > 100 µM | > 100 µM | > 100 µM | > 100 µM | > 100 µM |
| C[C@]12C[C@H](O)[C@H]3[C@@H](CCC4=CC(=O)CC[C@@]43C)[C@@H]1CC[C@@H]2c1csc(-c2ccccc2)n1 |  | > 100 µM |  | > 100 µM |  | > 100 µM |  | > 100 µM |  | > 51.3 µM |  | > 100 µM |  | > 80 µM |
| COC(C)C(O)(C(=O)OCC1=CCN2CCC(O)C12)C(C)(C)O (configuration not stated) |  | > 100 µM |  | > 100 µM |  | > 100 µM |  | > 100 µM |  |  |  | > 100 µM |  | > 100 µM |
| CC/C(=C/c1ccc(OC)cc1OC)[N+](=O)[O-] | 2.75 µM | 10.2 µM | 1.77 µM | 3.29 µM | 2.24 µM | 6.55 µM | 2.31 µM | 6.61 µM | 2.38 µM | 7.14 µM | 3.5 µM | 11.6 µM | 7.76 µM | 63.4 µM |
| Nc1ccc(/C=C/c2ccc3cccnc3c2)cc1 |  | > 100 µM |  | > 100 µM |  | > 100 µM |  | > 100 µM |  | > 100 µM |  | > 100 µM |  | > 100 µM |
| CN(N)c1nc(N)c(C#N)c(C#N)c1C#N |  |  |  | > 10 µM |  | > 10 µM |  | > 10 µM |  | > 10 µM |  | > 10 µM |  | > 10 µM |
| O=C1NC(c2ccccc2)C2(C(=O)O)CN(C3CC3)c3cc(N4CCNCC4)c(F)cc3C2N1 (configuration not stated) |  |  | > 100 µM | > 100 µM | > 100 µM | > 100 µM | > 100 µM | > 100 µM | > 100 µM | > 100 µM | > 100 µM | > 100 µM | > 100 µM | > 100 µM |
| O=C(/C=C/C12c3ccccc3C(c3ccccc31)C1C(=O)NC(=O)C12)c1ccccc1 (configuration not stated) | 1.42 µM | 2.82 µM | 1.7 µM | 3.1 µM | 1.49 µM | 3.68 µM | 2.29 µM | 6.91 µM | 2.17 µM | 4.38 µM | 1.72 µM | 5.1 µM | 2.19 µM | 7.68 µM |
| COc1c(N2CCN(CN3C(=O)C(=Nc4ccc(S(=O)(=O)Nc5ncccn5)cc4)c4cc(Cl)ccc43)C(C)C2)c(F)cc2c(=O)c(C(=O)O)cn(C3CC3)c12 (configuration not stated) |  |  | 19.2 µM | > 50 µM | 14 µM | 42.2 µM | 10.6 µM | 27.5 µM | 18.2 µM | > 50 µM | 13.9 µM | > 50 µM | 11.9 µM | 42.8 µM |
